{
  "source": "patent US8293791B2",
  "about": "“Method of neuroprotection by pharmacological inhibition of AMP-activated protein kinase” (priority 2004, dated 2012)",
  "key": {"[1]": {"test_system": "AMPKα phosphorylation (pAMPK)", "assay": "Western blot analysis of pAMPK levels in brain hemispheres after MCAO or sham surgery", "type": "in vivo, mouse", "method": "Cerebral ischemia was induced by 120 minutes of reversible right middle cerebral artery occlusion (MCAO) under halothane anesthesia followed by reperfusion for various times for male C57B6 mice (Charles River) or male rats, as described by McCullough, et al., Stroke, 32, 796-802 (2001) and McCullough, et al., J. Neuroscience, 24, pp. 257-268 (2004), respectively. Intra-ischemic and 22 hour post-reperfusion neurological deficits (NDS) were scored as follows: 0, no deficit; 1, forelimb weakness and torso turning to the ipsilateral side when held by tail; 2, circling to affected side; 3, unable to bear weight on affected side; and 4, no spontaneous locomotor activity or barrel rolling. Any animal without deficit was excluded from the study. At end-ischemia, the animal was briefly re-anaesthetized and reperfusion was initiated by filament withdrawal. Sham animals were subjected to the equivalent surgical preparation, but the suture was not advanced into the internal carotid. For the pharmacological neuroprotection studies, mice survived 22 hours after reperfusion, at which time behavioral scoring was done. The brain was then harvested for pathological examination with TTC histology (see Histopathology section). In separate animal cohorts, physiological measurements, femoral arterial blood pressure and cortical perfusion (laser Doppler flowmetry) were evaluated throughout MCAO and early reperfusion as described in the 2001 McCullough paper referenced above. Additional animals were exposed to ischemia or sham surgery after pharmacological or vehicle treatment and were sacrificed at 4 or 24 hours for Western blot analysis. Male nNOS and PARP-1 deficient mice (see, Huang, et al., Science, 265, 1883-1885 (1994); Eliasson, et al, Nat. Med, 3, 1089-1095 (1997)) were subjected to 2-hour right MCAO or sham surgery and compared to additional WT cohorts (C57-BL6 for nNOS−/− and SVEV for PARP−/−). Mouse and rat stroke and sham brain samples were obtained by rapid removal of the brain from the skulk resection of the cerebellum, followed by immediate dissection into the right (R) and left (L) hemispheres. Samples were flash frozen in liquid nitrogen. Samples from rats were further sub-dissected into core and penumbral regions for both hemispheres. Samples were stored at −80° C. until use. […] SDS detergent was added to a final concentration of 0.2%, and lysates were boiled for 5 min. After the supernatant was harvested, protein concentration was determined using a BCA kit (Bio Rad). 40 μg of protein was loaded per lane on a 4-15% gradient SDS-polyacrylamide gel, and transferred to a polyvinylidene difluoride membrane. Blots were successively probed, stripped and reprobed for antigen detection. Phosphorylation of AMPKα was determined using an anti-phospho-AMPKα (α1 and α2 Thr) antibody (1:1000, Cell Signaling). ACC (1:500), p-ACC (1:1000), pAkt (1:500), and Akt (1:500) antibodies were obtained from Upstate, Lake Placid, N.Y. Anti-AMPKα antibody (anti-α1 and α2, 1:1000; Cell Signaling), hsp-70 (1:1000; Santa Cruz), and β-actin (1:5000; Sigma) were used as loading controls. All blots were incubated overnight in primary antibody at 4° C. in TBS buffer containing 5% BSA and 0.1% Triton-X-100. The secondary antibody (goat anti-rabbit IgG, Chemicon) was diluted to 1:5,000, and ECL (pico) detection kit was used for signal detection."}, "male C57B6 mice [2]": {"test_system": "male C57B6 mice", "assay": "Infarction volume (TTC staining) after 2-hr reversible MCAO with 22 hr reperfusion", "type": "in vivo, mouse", "method": "Cerebral ischemia was induced by 120 minutes of reversible right middle cerebral artery occlusion (MCAO) under halothane anesthesia followed by reperfusion for various times for male C57B6 mice (Charles River) or male rats, as described by McCullough, et al., Stroke, 32, 796-802 (2001) and McCullough, et al., J. Neuroscience, 24, pp. 257-268 (2004), respectively. Intra-ischemic and 22 hour post-reperfusion neurological deficits (NDS) were scored as follows: 0, no deficit; 1, forelimb weakness and torso turning to the ipsilateral side when held by tail; 2, circling to affected side; 3, unable to bear weight on affected side; and 4, no spontaneous locomotor activity or barrel rolling. Any animal without deficit was excluded from the study. At end-ischemia, the animal was briefly re-anaesthetized and reperfusion was initiated by filament withdrawal. Sham animals were subjected to the equivalent surgical preparation, but the suture was not advanced into the internal carotid. For the pharmacological neuroprotection studies, mice survived 22 hours after reperfusion, at which time behavioral scoring was done. The brain was then harvested for pathological examination with TTC histology (see Histopathology section). In separate animal cohorts, physiological measurements, femoral arterial blood pressure and cortical perfusion (laser Doppler flowmetry) were evaluated throughout MCAO and early reperfusion as described in the 2001 McCullough paper referenced above. Additional animals were exposed to ischemia or sham surgery after pharmacological or vehicle treatment and were sacrificed at 4 or 24 hours for Western blot analysis. Male nNOS and PARP-1 deficient mice (see, Huang, et al., Science, 265, 1883-1885 (1994); Eliasson, et al, Nat. Med, 3, 1089-1095 (1997)) were subjected to 2-hour right MCAO or sham surgery and compared to additional WT cohorts (C57-BL6 for nNOS−/− and SVEV for PARP−/−). Infarction volume was analyzed by 2,3,5-triphenyltetrazolium staining in five 2-mm slices. Infarction volume was determined by video microscopy and image analysis (Inquiry 3, Loats Associates), as previously described by McCullough, et al., J. Neuroscience 23, pp. 8701-8705 (2003). All data are expressed as mean±SEM. Physiological variables and histology were analyzed by 1-way ANOVA with a post-hoc Newman-Keuls to correct for multiple comparisons. Post-ischemic neurological scores were analyzed by the Mann-Whitney U test. Values were considered statistically significant at *, p<0.05; **, p<0.01; ***, p<0.001"}, "male C57B6 mice [3]": {"test_system": "male C57B6 mice", "details": "mouse, in vivo"}, "male C57B6 mice [4]": {"test_system": "male C57B6 mice", "assay": "Neurological deficit score (NDS) after MCAO", "type": "in vivo, mouse", "method": "Cerebral ischemia was induced by 120 minutes of reversible right middle cerebral artery occlusion (MCAO) under halothane anesthesia followed by reperfusion for various times for male C57B6 mice (Charles River) or male rats, as described by McCullough, et al., Stroke, 32, 796-802 (2001) and McCullough, et al., J. Neuroscience, 24, pp. 257-268 (2004), respectively. Intra-ischemic and 22 hour post-reperfusion neurological deficits (NDS) were scored as follows: 0, no deficit; 1, forelimb weakness and torso turning to the ipsilateral side when held by tail; 2, circling to affected side; 3, unable to bear weight on affected side; and 4, no spontaneous locomotor activity or barrel rolling. Any animal without deficit was excluded from the study. At end-ischemia, the animal was briefly re-anaesthetized and reperfusion was initiated by filament withdrawal. […] In separate animal cohorts, physiological measurements, femoral arterial blood pressure and cortical perfusion (laser Doppler flowmetry) were evaluated throughout MCAO and early reperfusion as described in the 2001 McCullough paper referenced above. […]\nAll data are expressed as mean±SEM. Physiological variables and histology were analyzed by 1-way ANOVA with a post-hoc Newman-Keuls to correct for multiple comparisons. Post-ischemic neurological scores were analyzed by the Mann-Whitney U test. […]"}, "male C57B6 mice [5]": {"test_system": "male C57B6 mice", "assay": "Physiological measurements, arterial blood pressure and laser Doppler flow during MCAO and early reperfusion", "details": "for MAP: averaged over the 2 hours of ischemia (all); for MAP / LDF (% BL) / HCO3 / Hg / PCO2 / PO2 / Ph: n=4/group; for LDF (% BL) / HCO3 / Hg / PCO2 / PO2 / Ph: intra-ischemic; for LDF (% BL): averaged over the 2 hours of ischemia"}},
  "note": "“Also recorded” adds a separate entry of the source. Read-outs that look alike come from different tables or passages of the source.",
  "data": [
    {"smiles": "NC(=O)c1ncn([C@@H]2O[C@H](CO)[C@@H](O)[C@H]2O)c1N", "note": "[AICAR, 5-aminoimidazole-4-carboxamide ribonucleoside]", "values": [
      {"measurement": "pAMPK by 24 hr", "setting": "[1]; AICAR treated animals", "value": "returned to baseline"},
      {"measurement": "pAMPK 4 hr following stroke (2 hours of reperfusion)", "setting": "[1]; AICAR treated vs vehicle treated animals", "value": "elevations"},
      {"measurement": "total and cortical (CTX) stroke volumes", "setting": "male C57B6 mice [2]; AICAR 500 mg/kg i.p. at stroke onset, vs vehicle", "value": "significant exacerbation"},
      {"measurement": "CBF at 30 minutes after reperfusion", "setting": "male C57B6 mice [3]", "value": "82.7 % of baseline"},
      {"measurement": "HCO3", "setting": "male C57B6 mice [3]", "value": "22.9 ± 2.3"},
      {"measurement": "Hg", "setting": "male C57B6 mice [3]", "value": "13.4 ± 0.9"},
      {"measurement": "LDF (% BL)", "setting": "male C57B6 mice [3]", "value": "11.1 ± 1.2", "unit": "% BL"},
      {"measurement": "MAP", "setting": "male C57B6 mice [3]", "value": "77.7 ± 7.3 (all)"},
      {"measurement": "PCO2", "setting": "male C57B6 mice [3]", "value": "39.7 ± 4.9"},
      {"measurement": "PO2", "setting": "male C57B6 mice [3]", "value": "128 ± 15.2"},
      {"measurement": "Ph", "setting": "male C57B6 mice [3]", "value": "7.33 ± 0.11"},
      {"measurement": "intraischemic CBF, vs controls", "setting": "male C57B6 mice [3]", "value": "no differences"},
      {"measurement": "mean arterial pressure (MAP) at 15 minutes after injection", "setting": "male C57B6 mice [3]", "value": 69, "unit": "mmHg"}
    ]},
    {"smiles": "C=C1C(=O)OC(CCCCCCCC)C1C(=O)O", "note": "(stereo not drawn) [C75]", "values": [
      {"measurement": "behavioral scores (score 0-4)", "setting": "male C57B6 mice [4]; C75 20 mg/kg i.p. immediately prior to onset of ischemia, vehicle 3.2±0.05", "value": "2.0±0.03"},
      {"measurement": "increase in pAMPK levels at 4 hr (2 hr of reperfusion)", "setting": "[1]; C75 treated mice vs vehicle, 2-hour MCAO", "value": "blunted"},
      {"measurement": "pAMPK levels 24 hr following stroke", "setting": "[1]; C75 treated vs vehicle, both sham and stroke mice", "value": "reduced; also recorded: Reductions"},
      {"measurement": "LDF or physiological variables, vs vehicle", "setting": "male C57B6 mice [5]; C75 20 mg/kg i.p., n=4", "value": "no differences"},
      {"measurement": "MAP", "setting": "male C57B6 mice [5]", "value": "79.1 ± 6.5"},
      {"measurement": "LDF (% BL)", "setting": "male C57B6 mice [5]", "value": "10.6 ± 0.88", "unit": "% BL"},
      {"measurement": "HCO3", "setting": "male C57B6 mice [5]", "value": "22.8 ± 1.2"},
      {"measurement": "Hg", "setting": "male C57B6 mice [5]", "value": "12.9 ± 0.5"},
      {"measurement": "PCO2", "setting": "male C57B6 mice [5]", "value": "47 ± 7.1"},
      {"measurement": "PO2", "setting": "male C57B6 mice [5]", "value": "135 ± 14.2"},
      {"measurement": "Ph", "setting": "male C57B6 mice [5]", "value": "7.34 ± 0.08"},
      {"measurement": "total and regional infarction volume", "setting": "male C57B6 mice [2]; C75 20 mg/kg i.p. immediately prior to onset of ischemia, vs vehicle (RPMI), p<0.001", "value": "significant reduction"}
    ]},
    {"smiles": "c1cc(-c2cnn3cc(-c4ccc(OCCN5CCCCC5)cc4)cnc23)ccn1", "note": "[Compound C]", "values": [
      {"measurement": "severity of behavioral deficits at 24 hours (score 0-4)", "setting": "male C57B6 mice [4]; Compound C 20 mg/kg i.p. at stroke onset, vehicle 3.3±0.3", "value": "1.9±0.2"},
      {"measurement": "pAMPK levels 4 hr after infarction (2 hours of reperfusion)", "setting": "[1]; Compound C treated mice vs vehicle, 2 hours MCAO", "value": "reduced"},
      {"measurement": "relative cerebral blood flow (CBF) by laser Doppler, intraischemic and during the 30 minutes after reperfusion, vs vehicle", "setting": "male C57B6 mice [5]; Compound C 20 mg/kg i.p.", "value": "no difference"},
      {"measurement": "relative cerebral blood flow (CBF) by laser Doppler, intraischemic period", "setting": "male C57B6 mice [5]; Compound C 20 mg/kg i.p., vehicle 9.8±0.54, p=n.s.", "value": "10.6±0.9 % of baseline"},
      {"measurement": "MAP", "setting": "male C57B6 mice [5]", "value": "82.2 ± 5.9"},
      {"measurement": "LDF (% BL)", "setting": "male C57B6 mice [5]", "value": "10.6 ± 0.9", "unit": "% BL"},
      {"measurement": "HCO3", "setting": "male C57B6 mice [5]", "value": "23.1 ± 0.08"},
      {"measurement": "Hg", "setting": "male C57B6 mice [5]", "value": "12.7 ± 1.3"},
      {"measurement": "PCO2", "setting": "male C57B6 mice [5]", "value": "42.1 ± 3.1"},
      {"measurement": "PO2", "setting": "male C57B6 mice [5]", "value": "144.6 ± 14.3"},
      {"measurement": "Ph", "setting": "male C57B6 mice [5]", "value": "7.36 ± 0.07"},
      {"measurement": "cortical (CTX) infarct volume", "setting": "male C57B6 mice [2]; Compound C 20 mg/kg i.p. at stroke onset, 2-hr MCAO, 22 hr reperfusion, vehicle 63±3.4", "value": "19.4±3.3", "unit": "% non-ischemic hemisphere"},
      {"measurement": "striatal (CP) infarct volume", "setting": "male C57B6 mice [2]; Compound C 20 mg/kg i.p. at stroke onset, 2-hr MCAO, 22 hr reperfusion, vehicle 64±5.7", "value": "21±3.9", "unit": "% non-ischemic hemisphere"},
      {"measurement": "total infarct volume", "setting": "male C57B6 mice [2]; Compound C 20 mg/kg i.p. at stroke onset, 2-hr MCAO, 22 hr reperfusion, vs vehicle", "value": "significantly reduced"}
    ]}
  ]
}
